Broadly, the NOAEL is the highest tested level that showed no adverse finding.

One data set has as its system Canidae. The note with it: oral, Dog Other, clinical chemistry.

With `COc1cc(C)c(C(=O)c2c(OC)ncc(Cl)c2C)c(OC)c1OC` [Pyriofenone], the NOAEL in the data set with Anas platyrhynchos (reproductive, reproduction) worked out at 119 mg/kg-day; with Canidae (chronic, duration: 1 years), 13.7 mg/kg-day; with Canidae (subchronic, duration: 90 days), 15 mg/kg-day; in the data set with Colinus virginianus (reproduction developmental, reproduction), 94 mg/kg-day; in the data set on Rattus norvegicus (chronic, duration: 2 years, hematological), 7.25 mg/kg-day; in the data set on Rattus norvegicus (reproduction developmental, hematological), 64.1 mg/kg-day. The compound also gave an NOAEL in the data set with Rattus norvegicus (subchronic, duration: 90 days, oral, organ weight) of 17.9 mg/kg-day. Besides, the LC50 in the data set on Anas platyrhynchos (short-term, oral, feed, mortality) was > 1290 mg/kg-day; in the data set with Colinus virginianus (acute, oral, diet, mortality) it was > 980 mg/kg-day. The LD50 with Colinus virginianus (acute, oral, mortality) is > 2000 mg/kg-day; in the data set with Rattus norvegicus (acute, oral, mortality) it was > 2000 mg/kg-day.

Values taken from EPA's ToxValDB 9.5 (doi:10.2903/j.efsa.2013.3147).
